According to patent US10537100B2, “Substituted methylenedioxybenzyl compounds and their use as synergists” (Endura SPA, priority 2015, dated 2020):

Columns and labels:
Format in all cases: in vivo
Musca domestica = assay: Contact test on treated glass surfaces, synergist with cypermethrin; conditions: in combination with cypermethrin
Description: Laboratory bred Musca domestica species, 4-5 days old mixed sex imagoes derived from a field collected strain were assayed for the test. 1000 ml of test solutions were prepared diluting in water 6.06 grams of cypermethrin commercial formulation, equivalent to 0.224 g of cypermethrin per liter of insecticidal solution and a suitable amount of synergist such as to have a ratio between cypermethryn and synergists=1:13. The synergists were formulated in the form of emulsified concentrate (EC). The following amount of the formulations of synergist EC were added to the above described insecticidal solution of cypermethrin.
3.83 g of EC formulation containing 77.1% (w/w) of the compound of Example 2 (5-n-butyl-6-((prop-2-ynyloxy)methyl)benzo[d][1,3]dioxole)
3.57 g of EC formulation containing 83% (w/w) of the comparison compound 5-(but-2-ynyloxymethyl)-6-n-propyl-benzo[1,3]dioxole (EN126) corresponding to 2.95 g of the compound of the invention and of the comparison product per liter of test formulation
1 ml of each test formulation was applied to each individual grass surface of 100 cm^2 by means of a hand held pump sprayer on a scale measuring by 2 decimal precision, being the acceptable limit of divergence: +/−10%. The treated glass surfaces were left at room temperature for 24 hours after treatment and prior to be used. 40 mixed sex Musca domestica imagoes (20 males and 20 females) were selected and placed into a 500 cm^3 glass cylinders covered with an untreated glass surface until the start of the study. Five replicates were executed, altogether 200 houseflies (100 males and 100 females) were used per test formulation. At the beginning of the test, the untreated glass covering the glass cylinder was replaced with a glass surface treated with the test formulation. The exposure time was 30 minutes. After this period of time, the treated glass surfaces were removed and replaced with untreated ones. During the test water and food (water/sugar solution) were provided to the test insect inside the glass cylinders
In parallel with the test, the mortality of flies in an untreated control replicate was determined using the same conditions and methods. Throughout the control test, non-treated glass surfaces covered the glass cylinders. The maximum mortality rate allowed within the control group to consider the test representative was 10% after 24 hours. If above this value, the test was not considered representative and was repeated. During the trials, no deviance has been noted.
The test conditions were as follows: • temperature: 23-25° C. • relative humidity: min. 60% • light regime: 12 hrs dark/12 hrs natural illumination.
The reading intervals of the number of knocked down flies were: 10-20-30-40-50-60-90-120-180 minutes. Mortality was determined after 24 hours.
The efficacy was calculated according the following formula

Blattella germanica = assay: Contact test on treated glass vials, synergist with cypermethrin
Description: Laboratory bred B. germanica species, mixed ages (pre-immaginal and imagoes) and mixed sex were assayed for the test.
An insecticide stock solution was prepared with 150 μL of cypermethrin commercial formulation and diluted to 15 μL/mL with technical acetone to a final volume of 10 mL. The solution contained 450 μg/mL of cypermethrin per liter of insecticidal solution
Stock solution of the compounds of Example 1 and Example 2 were prepared dissolving around 10 mg of EC formulations containing compounds of the Example 1 and Example 2 in technical acetone to have a final concentration of 1.365 μg/mL.
Stock solution (1650 μL) was diluted to 2250 μL with acetone or with stock of insecticide in acetone to have respectively a final concentration of 1 g/L of synergist (as active ingredient) or 0.12 g/L of cypermethrin+1 g/L of the compounds of Example 1 and Example 2. Insecticide alone was prepared adding 600 μL of stock solution to 1650 μL of acetone.
Glass vials (internal surface 35 cm^2) were treated with 350 μL of insecticide solution and allowed to dry in a fume hood on a vial rotator and used as soon as the acetone was fully evaporated.
B. germanica specimens were introduced singly in vials. 20 specimens were tested for each combination of product. The exposure time to product residues was 30 minutes. After this duration the specimens were transferred to an untreated vial ad provided with food and water.
In parallel within the test, a control study has been set up with the same conditions and methods using acetone only treated vials.
The test conditions were as follows: • temperature: 22-24° C. during knock down evaluation (t: 0-30′); 26° C. during mortality assessment (t: 24 h) • relative humidity: min. 60% • light regime: 8 hrs dark/16 hrs natural illumination.
The reading intervals of the number of knocked down and the number of dead insects were: 5-10-15-20-25-30 minutes. A final reading was done 24 hours after the starting of the exposure.
The calculation model of efficacy is according to Abbott's formula (Abbott W S (1925) A method for computing the effectiveness of an insecticide. J. Econ. Entomol. 18: 265-267):
The results are reported in the following Table 5 and represent an average of 4 repetitions.

[1] = test system: Myzus persicae clone highly resistant to insecticide; assay: Contact test on treated plant (pea seedling dip), synergist with neonicotinoid; conditions: for Efficacy of the tested compounds: synergist 1 g/L, mortality assessed at 48 hours, Abbott's formula
Description: Laboratory bred Myzus persicae clone highly resistant to insecticide, derived from a field collected population after control failure, mixed age apterous parthenogenetic females adults, were assayed for the test.
Four (4) different commercially available formulated insecticides were used and diluted as follow: • imidacloprid: 1000 mL of test solution was prepared diluting in water 20 μL of commercial formulation, containing 200 g/L of a.i., equivalent to 0.004 g of imidacloprid per liter of insecticidal solution; • thiacloprid: 1000 mL of test solution was prepared diluting in water 24 μL of commercial formulation containing 480 g/L of a.i, equivalent to 0.012 g of thiacloprid per liter of insecticidal solution;
The compounds of Example 1 and Example 2 were formulated in the form of emulsified concentrate (EC).
The following amount of the EC formulations were added to the above described insecticidal solution of insecticide to have a final concentration of synergist equal to 1 g/L:
20 mL of test formulations were used to wet by dipping for 5″ a small pea seedling (1-1.5 cm long). Seedlings were left at room temperature in a fume hood and allowed to dry for 15″. After drying 10-15 apterous parthenogenetic females were moved to the seedling and allowed to settle. Mortality produced by pyrethroids was assessed 24 hours later. Mortality produced by neonicotinoids was assessed 48 hours later.
Three replicates were executed each composed by 2 subreplicates (seedlings) and 60-90 specimens were used per test formulation.
In parallel with the test, the mortality of aphids in an untreated control replicate (seedlings dipped in water) was determined using the same conditions and methods.
The efficacy was calculated according the Abbott's formula: […]

[2] = Imidacloprid (0.004 g per liter)
[3] = thiacloprid (0.012 g per liter)

SMILES	efficacy compared with comparison product EN126 (Musca domestica)	knock down activity compared with comparison product EN126 (Musca domestica; clearly notable at short times)	synergist effect when mixed with Cypermethrin (Blattella germanica)	efficacy in combination with imidacloprid and thiacloprid [1]	Efficacy of the tested compounds [1, 2]	Efficacy of the tested compounds [1, 3]
C#CCOCc1cc2c(cc1CCCC)OCO2 [Compound of Example 2, 5-n-butyl-6-((prop-2-ynyloxy)methyl)benzo[d][1,3]dioxole]	better efficacy	better knock down activity	synergist effect	very good efficacy	−20.3	−20.3
C#CCOCc1cc2c(cc1CCCCCC)OCO2 [Compound of Example 1, 5-n-hexyl-6-((prop-2-ynyloxy)methyl)benzo[d][1,3]dioxole]	–	–	synergist effect	very good efficacy	23.8	23.8
